Measured values taken from US6476010B2, “Method for increasing intestinal absorption of fat soluble vitamins in post-menopausal women and lower animals” (Hill's Pet Nutrition, priority 2000, dated 2002).

What was measured:
ovariectomized rats [1] = experiment: Lymphatic absorption of α-tocopherol after 5 weeks of dietary carnitine (mesenteric lymph duct cannulation); format: in vivo, rat; settings: carnitine supplemented diet for 5 weeks
Procedure: Thirty two 10 weeks old female Sprague-Dawley rats weighing 208±8 g (Harlan Sprague Dawley, Indianapolis, Ind.) were housed and fed as described in Example 1. At the end of second week, at the average body weight of 240±9 g, the rats were ovariectomized under halothane anesthesia after 16 hours fasting. Initial (0 week) blood samples were taken from 6 randomly selected rats.
Immediately after surgery, rats were divided into the following two experimental groups as described in Example 1, i.e., one group was fed a diet supplemented with carnitine, and one control group. The normal food intake for both groups was about 15-16 g/day/rat.
At the end of the 5th week, Lymph duct cannulation was performed on each group having an average body weight of 340±15 g. Cannulation of the mesenteric lymph duct was performed, following 16 hours food deprivation, as described previously (Noh et al., supra). Briefly, after a midline abdominal incision was performed, the mesenteric lymph duct was cannulated with polyethylene tubing (SV 31 tubing, Dural Plastics, Auburn, Australia) by securing with a drop of cyanoacrylate glue (Krazy Glue, Columbus, Ohio) under halothane anesthesia (2.0% halothane in 2.01 oxygen/min). A silicone feeding catheter (Silastic medical grade tubing, Dow Coming, Midland, Mich.) was inserted into the gastric fundus region. The infusion catheter was exteriorized alongside the lymph cannula through the right flank. Cannulated rats were placed in individual restraining cages and allowed to recover for at least 20 hours in a warm recovery chamber kept at about 30° C. Immediately following surgery, glucose-phosphate buffered saline (PBS) (in mmol/l: 277 glucose, 6.75 Na2HPO4, 16.5 NaH2PO4, 115 NaCl, and 5 KCI; pH 6.7) was continuously infused through the duodenal cannula at 3.0 ml/h via a syringe pump (Harvard Apparatus, Model 935, South Natick, Mass.).
After postoperative recovery, rats were infused with a lipid emulsion containing 1 μCi of [carboxyl-^14C]-triolein (specific activity 112.0 mCi/mmol, DuPont NEN, Boston, Mass.), 565 μmol triolein (95%, Sigma Chemical, St. Louis, Mo.), 3.56 μmol α-tocopherol (all-rac-a-tocopherol, 97%, Aldrich Chemical, Milwaukee, Wis.), and 396 μmol sodium taurocholic acid in 24 ml of PBS. Lymph was collected hourly for 8 hours in pre-weighed conical centrifuge tubes containing 30 μg of n-propyl gallate and 4 mg of Na2EDTA in ice-filled beakers. After lymph collection, the rats were killed by cervical dislocation, and the livers were collected. The samples were stored at about −70° C. until analysis.
From the lipid extracted (Folch et al., supra), tissue total phospholipid was measured colorimetrically by the method of Reheja et al. (J Lipid Res 1973;14:695-697). Tissue total cholesterol was determined as described by Rudel et al. (J Lipid Res 1973;21:364-366). Alpha-tocopherol was determined as described by Zaspel et al (supra) and in Example 1 above. Statistical analyses were conducted as described in Example 1.

ovariectomized rats [2] = experiment: Liver levels and biliary secretion of α-tocopherol after 8 weeks of dietary carnitine (bile duct cannulation); format: in vivo, rat
Procedure: Thirty two 10 weeks old female Sprague-Dawley rats weighing 214±6 g (Harlan Sprague Dawley, Indianapolis, Ind.) were placed individually in plastic cages with stainless steel wire-bottoms in a windowless room at a controlled temperature of about 23° C. and subjected to a light-dark cycle with the light period from 3:30 pm to 3:30 am and the dark period from 3:30 am to 3:30 pm. The rats were acclimatized for 1 week with free access to the deionized water and ad libitum fed a zinc-adequate AIN-93G diet (Reeves et al., J Nutr 1993;123:1939-1951) formulated by Dyets, Inc. (Bethlehem, Pa., USA) with 7% soybean oil as a fat source. Zinc carbonate was added to provide the desired levels of zinc. At the end of the first week, at the average body weight of 230±12 g, the rats were ovariectomized under halothane anesthesia after 16 hours of fasting. Initial blood samples (week 0) were taken from 5 randomly selected rats. After 1 week of postoperative recovery, rats were divided into the following two experimental groups by matching body weight: One group of rats was fed a zinc-adequate AIN-93G diet containing α-tocopherol-stripped soybean oil; 150 ppm Sipernat® 50, which is hydrated silica available from Degussa Corporation, Ridgefield, N.J.; and supplemented with 150 mg/kg L-carnitine. A control group was fed the same diet, except that the 150 mg/kg of L-carnitine was substituted with 150 ppm of α-D-glucose. The normal food intake for both groups was around 15 g/day/rat. Blood samples were taken at the beginning of 1, 3, 5, 8 weeks from 5 randomly selected rats in each group. At the end of the 8th week, bile duct cannulation was performed on the rats in both groups having an average body weight of about 340±15 g. Cannulation of the common bile duct was performed, following 16 hours food deprivation, as described previously (Noh et al., J Nutr Biochem 1999;10:110-117). Briefly, after performing a midline abdominal incision, the common bile duct was cannulated with PE-10 tubing (Clay Adams, Sparks, Md.) under halothane anesthesia (2.0% halothane in 2.01 oxygen/min). A silicone feeding catheter (Silastic medical grade tubing, Dow Coming, Midland, Mich.) was inserted into the gastric fundus region. The infusion catheter was exteriorized alongside the bile cannula through the right flank. Cannulated rats were placed in individual restraining cages and allowed to recover for at least 20 hours in a warm recovery chamber kept at about 30° C. Immediately after surgery, glucose-phosphate buffered saline (PBS) (in mmol/l: 277 glucose, 6.75 Na2HPO4, 16.5 NaH2PO4, 115 NaCl, and 5 KCI; pH 6.7) was continuously infused through the duodenal cannula at 3.0 ml/h via a syringe pump (Harvard Apparatus, Model 935, South Natick, Mass.). After postoperative recovery, rats were infused with a lipid emulsion containing 565 μmol triolein (95%, Sigma Chemical, St. Louis, Mo.), and 396 μmol sodium taurocholic acid in 24 ml of PBS. Bile was collected hourly for 8 hours in pre-weighed conical centrifuge tubes containing 30 μg of n-propyl gallate in ice filled beakers. After bile collection, the rats were killed by cervical dislocation, and the livers were dissected. The samples were stored at about −70° C. until analysis. Lipids were extracted by Folch's method (Folch et al., J Biol Chem 1957;226:497-509). The content of α-tocopherol was determined as described by Zaspel et al. (Anal. Biochem. 1983;130:146-150). […]

[3] = significant difference vs control

In the case of `C[N+](C)(C)C[C@H](O)CC(=O)[O-]` [carnitine, L-carnitine], the “lymphatic absorption of α-tocopherol for 8 hours” value (ovariectomized rats [1]; lipid emulsion with 3.56 μmol α-tocopherol infused, P<0.05 vs control) is reported as 899±200 nmol/8 h, the lymph flow (ovariectomized rats [1]; lymph collected for 8 hours, no difference vs control) is reported as 22.6±4.2 ml/8 hours and the “absorption of 14C-triolein” value (ovariectomized rats [1]; lymph for 8 hours, P<0.05 vs control) is reported as 53.5±4.0 % dose. For the same compound, the “ratio of lymph α-tocopherol/cholesterol” value (ovariectomized rats [1]; [3]) was 82.7±17.1 nmol/μmol, the “ratio of lymph α-tocopherol/phospholipid” value (ovariectomized rats [1]; [3]) was 46.9±8.8 nmol/μmol and the “α-tocopherol concentration per 100 mg total lipid” value (ovariectomized rats [2]; liver, ovariectomized rats fed a carnitine supplemented diet, compared with control) was “significantly higher”. The bile flow (ovariectomized rats [2]; ovariectomized Sprague-Dawley rats, diet with 150 mg/kg L-carnitine for 8 weeks, bile collected for 8 hours, no difference vs control, mean±SD) was 7.9±1.4 ml/8 hours, the “biliary secretion of α-tocopherol for 8 hours” value (ovariectomized rats [2]; ovariectomized rats, diet with 150 mg/kg L-carnitine for 8 weeks, P<0.05 vs control, mean±SD) was 53.1 ± 9.3 nmol and the “ratio of liver α-tocopherol/phospholipid” value (ovariectomized rats [2]; ovariectomized rats, diet with 150 mg/kg L-carnitine for 8 weeks, P=0.001 vs control) was 4.8±0.6 nmol/μmol. The “liver concentration of α-tocopherol” value (ovariectomized rats [2]; ovariectomized rats, diet with 150 mg/kg L-carnitine for 8 weeks, significantly elevated vs control) was 129.6 ± 19.5 nmol/g.
